Laboratory results reported in ChEMBL document CHEMBL3885881, “DrugMatrix”.

Organism: Rattus norvegicus
Experiment: DrugMatrix - Regimen: Daily Repeat
Assay type: toxicity, organism-based, Sprague-Dawley
Set-up: regimen Daily Repeat, gender Male, age 6-8 weeks
Conditions: in vivo, po, route oral GAVAGE, […]; for ABSOLUTE BASOPHIL / ABSOLUTE EOSINOPHIL / ABSOLUTE LYMPHOCYTE / ABSOLUTE MONOCYTE / ABSOLUTE SEGMENTED NEUTROPHIL / BASOPHIL / EOSINOPHIL / ERYTHROCYTE COUNT / HEMATOCRIT / HEMOGLOBIN / LEUKOCYTE COUNT / LYMPHOCYTE / MEAN CORPUSCULAR HEMOGLOBIN / MEAN CORPUSCULAR HEMOGLOBIN CONCENTRATION / MEAN CORPUSCULAR VOLUME / MONOCYTE / NEUTROPHIL / NUCLEATED RED BLOOD CELLS / PLATELET COUNT: tissue Blood; for ALANINE AMINOTRANSFERASE / ALBUMIN / ALKALINE PHOSPHATASE / ASPARTATE AMINOTRANSFERASE / BLOOD UREA NITROGEN / CARBON DIOXIDE / CHLORIDE / CHOLESTEROL / CREATINE PHOSPHOKINASE / CREATININE / GLUCOSE / LACTATE DEHYDROGENASE / LIPASE / PHOSPHORUS / POTASSIUM / SODIUM / TOTAL BILIRUBIN / TOTAL PROTEIN / URIC ACID: tissue Plasma
[1] = 6 mg/kg, 120 h, dose level Low, time 5 day
[2] = 74 mg/kg, 72 h, dose level High, time 3 day
[3] = 74 mg/kg, 120 h, dose level High, time 5 day

CO[C@H]1O[C@@H]2O[C@@]3(C)CC[C@H]4[C@H](C)CC[C@@H]([C@H]1C)[C@@]24OO3
ABSOLUTE BASOPHIL [1]: 0 CELLS/uL
ABSOLUTE EOSINOPHIL [1]: 153 CELLS/uL
ABSOLUTE LYMPHOCYTE [1]: 12396 CELLS/uL
ABSOLUTE MONOCYTE [1]: 197.67 CELLS/uL
ABSOLUTE SEGMENTED NEUTROPHIL [1]: 1920 CELLS/uL
BASOPHIL [1]: 0%
EOSINOPHIL [1]: 1%
ERYTHROCYTE COUNT [1]: 5.88 x10E6/uL
HEMATOCRIT [1]: 36.63%
HEMOGLOBIN [1]: 13.47 G/DL
LEUKOCYTE COUNT [1]: 14.67 x10E3/uL
LYMPHOCYTE [1]: 84.33%
MEAN CORPUSCULAR HEMOGLOBIN [1]: 22.93 pg
MEAN CORPUSCULAR HEMOGLOBIN CONCENTRATION [1]: 36.8 G/DL
MEAN CORPUSCULAR VOLUME [1]: 62.33 fL
MONOCYTE [1]: 1.33%
NEUTROPHIL [1]: 13.33%
NUCLEATED RED BLOOD CELLS [1]: 0 /100WBC
PLATELET COUNT [1]: 1198.67 x10E3/uL
ALANINE AMINOTRANSFERASE [1]: 52.67 u/L
ALBUMIN [1]: 4.37 G/DL
ALKALINE PHOSPHATASE [1]: 430.33 u/L
ASPARTATE AMINOTRANSFERASE [1]: 101 u/L
BLOOD UREA NITROGEN [1]: 17.67 mg/dL
CARBON DIOXIDE [1]: 23.33 mmol/L
CHLORIDE [1]: 105.67 MEQ/L
CHOLESTEROL [1]: 58.67 mg/dL
CREATINE PHOSPHOKINASE [1]: 552.33 u/L
CREATININE [1]: 0.16 mg/dL
GLUCOSE [1]: 160 mg/dL
LACTATE DEHYDROGENASE [1]: 887.67 u/L
LIPASE [1]: 8.33 u/L
PHOSPHORUS [1]: 11.77 mg/dL
POTASSIUM [1]: 6.02 MEQ/L
SODIUM [1]: 144.53 MEQ/L
TOTAL BILIRUBIN [1]: 0.17 mg/dL
TOTAL PROTEIN [1]: 5.93 G/DL
URIC ACID [1]: 1.83 mg/dL
ABSOLUTE BASOPHIL [2]: 0 CELLS/uL
ABSOLUTE EOSINOPHIL [2]: 390 CELLS/uL
ABSOLUTE LYMPHOCYTE [2]: 14550 CELLS/uL
ABSOLUTE MONOCYTE [2]: 453 CELLS/uL
ABSOLUTE SEGMENTED NEUTROPHIL [2]: 1407 CELLS/uL
BASOPHIL [2]: 0%
EOSINOPHIL [2]: 2.33%
ERYTHROCYTE COUNT [2]: 5.21 x10E6/uL
HEMATOCRIT [2]: 33.1%
HEMOGLOBIN [2]: 12.6 G/DL
LEUKOCYTE COUNT [2]: 16.8 x10E3/uL
LYMPHOCYTE [2]: 86.67%
MEAN CORPUSCULAR HEMOGLOBIN [2]: 24.23 pg
MEAN CORPUSCULAR HEMOGLOBIN CONCENTRATION [2]: 38.07 G/DL
MEAN CORPUSCULAR VOLUME [2]: 63.67 fL
MONOCYTE [2]: 2.67%
NEUTROPHIL [2]: 8.33%
NUCLEATED RED BLOOD CELLS [2]: 0 /100WBC
PLATELET COUNT [2]: 1173 x10E3/uL
ALANINE AMINOTRANSFERASE [2]: 46 u/L
ALBUMIN [2]: 4.13 G/DL
ALKALINE PHOSPHATASE [2]: 349.67 u/L
ASPARTATE AMINOTRANSFERASE [2]: 77.33 u/L
BLOOD UREA NITROGEN [2]: 16 mg/dL
CARBON DIOXIDE [2]: 27 mmol/L
CHLORIDE [2]: 103.33 MEQ/L
CHOLESTEROL [2]: 66.67 mg/dL
CREATINE PHOSPHOKINASE [2]: 259.33 u/L
CREATININE [2]: 0.23 mg/dL
GLUCOSE [2]: 144.67 mg/dL
LACTATE DEHYDROGENASE [2]: 331.33 u/L
LIPASE [2]: 9.33 u/L
PHOSPHORUS [2]: 10.07 mg/dL
POTASSIUM [2]: 6.54 MEQ/L
SODIUM [2]: 142.23 MEQ/L
TOTAL BILIRUBIN [2]: 0.2 mg/dL
TOTAL PROTEIN [2]: 5.63 G/DL
URIC ACID [2]: 1.17 mg/dL
ABSOLUTE BASOPHIL [3]: 0 CELLS/uL
ABSOLUTE EOSINOPHIL [3]: 257.33 CELLS/uL
ABSOLUTE LYMPHOCYTE [3]: 17040 CELLS/uL
ABSOLUTE MONOCYTE [3]: 413.67 CELLS/uL
ABSOLUTE SEGMENTED NEUTROPHIL [3]: 1822.33 CELLS/uL
BASOPHIL [3]: 0%
EOSINOPHIL [3]: 1.33%
ERYTHROCYTE COUNT [3]: 6.13 x10E6/uL
HEMATOCRIT [3]: 36.63%
HEMOGLOBIN [3]: 13.57 G/DL
LEUKOCYTE COUNT [3]: 19.53 x10E3/uL
LYMPHOCYTE [3]: 87%
MEAN CORPUSCULAR HEMOGLOBIN [3]: 22.17 pg
MEAN CORPUSCULAR HEMOGLOBIN CONCENTRATION [3]: 37.03 G/DL
MEAN CORPUSCULAR VOLUME [3]: 59.77 fL
MONOCYTE [3]: 2%
NEUTROPHIL [3]: 9.67%
NUCLEATED RED BLOOD CELLS [3]: 0.33 /100WBC
PLATELET COUNT [3]: 1300.33 x10E3/uL
ALANINE AMINOTRANSFERASE [3]: 55.33 u/L
ALBUMIN [3]: 4.3 G/DL
ALKALINE PHOSPHATASE [3]: 329 u/L
ASPARTATE AMINOTRANSFERASE [3]: 100 u/L
BLOOD UREA NITROGEN [3]: 16.33 mg/dL
CARBON DIOXIDE [3]: 25 mmol/L
CHLORIDE [3]: 102.67 MEQ/L
CHOLESTEROL [3]: 51.67 mg/dL
CREATINE PHOSPHOKINASE [3]: 790.67 u/L
CREATININE [3]: 0.21 mg/dL
GLUCOSE [3]: 171.67 mg/dL
LACTATE DEHYDROGENASE [3]: 649.67 u/L
LIPASE [3]: 9.67 u/L
PHOSPHORUS [3]: 12.37 mg/dL
POTASSIUM [3]: 5.73 MEQ/L
SODIUM [3]: 143.53 MEQ/L
TOTAL BILIRUBIN [3]: 0.13 mg/dL
TOTAL PROTEIN [3]: 5.8 G/DL
URIC ACID [3]: 1.73 mg/dL
